# Measurements published in PubChem BioAssay (NCI).
#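 Dose response: 5 concentrations. Exposure: 48 h. Format: 96-well plates. Endpoint: linear interpolation; highest concentration if not reached. GI50 = concentration required for 50% inhibition of growth. TGI: concentration producing complete growth inhibition.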
# How the values were obtained:
# Test in all cases: inhibition of tumour cell growth, NCI panel, 48 h
# TK-10 renal = tested on: TK-10 renal
# KM12 colon = tested on: KM12 colon
# SK-MEL-5 melanoma = tested on: SK-MEL-5 melanoma
# SF-539 CNS = tested on: SF-539 CNS
# BT-549 breast = tested on: BT-549 breast
# CCRF-CEM leukemia = tested on: CCRF-CEM leukemia
# NCI-H23 lung = tested on: NCI-H23 lung
# 786-0 renal = tested on: 786-0 renal
# IGROV1 ovarian = tested on: IGROV1 ovarian
# EKVX NSCLC = tested on: EKVX NSCLC
SMILES,TGI (TK-10 renal),TGI (KM12 colon),TGI (SK-MEL-5 melanoma),TGI (SF-539 CNS),TGI (BT-549 breast),TGI (CCRF-CEM leukemia),TGI (NCI-H23 lung),TGI (786-0 renal),TGI (IGROV1 ovarian),TGI (EKVX NSCLC),GI50 (TK-10 renal),GI50 (KM12 colon),GI50 (SK-MEL-5 melanoma),GI50 (SF-539 CNS),GI50 (BT-549 breast),GI50 (CCRF-CEM leukemia),GI50 (NCI-H23 lung),GI50 (IGROV1 ovarian),GI50 (EKVX NSCLC)
COc1ccc(/C=C(\C#N)c2nc(N)nc(N3N=C(C)CC3(C)C)n2)c(O)c1,77.7 µM,29.2 µM,28.5 µM,29.1 µM,> 100 µM,76.9 µM,42.3 µM,30 µM,56.4 µM,47.9 µM,,,,,,,,,
CN(CCCNC(=O)c1cn(C)c2c1ccc1cc(Cl)c(Cl)cc12)CCCNC(=O)c1cn(C)c2c1ccc1cc(Cl)c(Cl)cc12,37.4 µM,20.8 µM,28.7 µM,32.1 µM,33.3 µM,38.7 µM,31.4 µM,49.4 µM,25.5 µM,31.5 µM,,,,,,,,,
Cc1cc(O)c(C(C)C)cc1CN1CCCCC1,> 100 µM,> 100 µM,> 100 µM,> 100 µM,> 100 µM,> 100 µM,> 100 µM,> 100 µM,> 100 µM,> 100 µM,,,,,,,,,
OCCOCn1cc(Cn2ncc3c(SCc4ccccc4)ncnc32)nn1,> 100 µM,> 100 µM,> 100 µM,> 100 µM,> 100 µM,,> 100 µM,> 100 µM,> 100 µM,> 100 µM,,,,,,,,,
NCCNc1nc(N2CCCC2)c2nc(Cl)c(NCc3ccccc3)nc2n1,3.25 µM,2.93 µM,3.27 µM,3.79 µM,4.12 µM,6.87 µM,5.46 µM,3.08 µM,4.7 µM,4.36 µM,,,,,,,,,
CC(Sc1ccccc1)C(CO)(CO)[N+](=O)[O-] (stereo not drawn),33.7 µM,,25.8 µM,31 µM,,7.51 µM,33.3 µM,,38 µM,34.1 µM,,,,,,,,,
COC(=O)C1C(C)N1C (stereo not drawn),> 100 µM,> 100 µM,> 100 µM,> 100 µM,,> 100 µM,> 100 µM,,> 100 µM,> 100 µM,,,,,,,,,
O=[n+]1c2c(n([O-])c3ccccc31)-c1cccc3cccc-2c13,> 100 µM,> 100 µM,> 100 µM,,,> 100 µM,> 100 µM,,,,,,,,,,,,
NNC(=O)c1ccccc1Nc1ccccc1C(=O)NN,> 100 µM,> 100 µM,> 100 µM,> 100 µM,> 100 µM,> 100 µM,> 100 µM,> 100 µM,> 100 µM,> 100 µM,,,,,,,,,
Nc1nc(N)c2c(n1)NC(c1ccccc1)CC(/C=C/c1ccc(Cl)cc1)=N2 (stereo not drawn),8.64 µM,13.6 µM,23.4 µM,31.2 µM,37.9 µM,50.4 µM,16.1 µM,12 µM,7.67 µM,17.3 µM,,,,,,,,,
O=S(=O)(O)c1cccc2c(N=Nc3c(O)ccc4ccccc34)cccc12,> 100 µM,> 100 µM,> 100 µM,,> 100 µM,> 100 µM,> 100 µM,> 100 µM,> 100 µM,> 100 µM,,,,,,,,,
N[C@H]1CCN(c2c(F)cc3c(=O)c(C(=O)O)cn4c3c2Oc2cc3c(ccc5ccccc53)cc2-4)C1,> 100 µM,> 100 µM,4.3 µM,10.6 µM,> 100 µM,,> 100 µM,> 100 µM,> 100 µM,7.21 µM,,,,,,,,,
CC(=O)N(C)c1ccc2c(ccc[n+]2[O-])c1[N+](=O)[O-],> 100 µM,> 100 µM,> 100 µM,> 100 µM,,> 100 µM,> 100 µM,> 100 µM,> 100 µM,> 100 µM,,,,,,,,,
O=C1c2cc3c(cc2-c2c1c1ccc(Cl)cc1c(=O)n2C[C@H](O)[C@@H](O)[C@H](O)CO)OCO3,1.58 µM,> 100 µM,0.0701 µM,0.0602 µM,1.36 µM,17 µM,0.193 µM,,> 100 µM,11.2 µM,271 nM,138 nM,25.3 nM,16 nM,30.1 nM,< 10 nM,29.3 nM,126 nM,202 nM
CC(=O)OC1CC(O)CC2=CCC3C4CCC(C(C)(O)C(O)CC5COC(=O)C5C)C4(C)CCC3C21C (stereo not drawn),> 25 µM,> 25 µM,> 25 µM,> 25 µM,> 25 µM,> 25 µM,> 25 µM,> 25 µM,> 25 µM,> 25 µM,,,,,,,,,
CN(C)CCn1c(=O)c2ccc3c4c(nn3CCN(C)C)c3cc(N)ccc3n(c1=O)c24,3.8 µM,0.63 µM,0.237 µM,0.579 µM,0.78 µM,,0.021 µM,0.0573 µM,4.45 µM,0.237 µM,,,,,,,,,
CCC(C)C1NC(=O)C2CCCN2C(=O)C(CC2CO2)OC(=O)CCNC(=O)C(C)N(C)C(=O)C(C(C)C)N(C)C1=O (stereo not drawn),> 100 µM,> 100 µM,< 0.0276 µM,> 100 µM,> 100 µM,,> 100 µM,,> 100 µM,> 100 µM,,,,,,,,,
CC1(C)CCC2(C(=O)OC3OC(CO)C(O)C(O)C3O)CCC3(C)C(=CCC4C5(C)CCC(OC6OC(CO)C(O)C(O)C6O)C(C)(C)C5CCC43C)C2C1 (stereo not drawn),> 25 µM,19 µM,> 25 µM,12.8 µM,> 25 µM,14 µM,> 25 µM,> 25 µM,> 25 µM,> 25 µM,,,,,,,,,
Nc1ccc2c(c1)C(=O)N(O)C2=O,> 100 µM,> 100 µM,,> 100 µM,,> 100 µM,> 100 µM,,> 100 µM,> 100 µM,,,,,,,,,
